Assays:
Assay type in all cases: cell-based
[1] = tested on: SERPINC1; test: RNA-seq of SERPINC1 expression in compound-treated primary human hepatocytes; conditions: significance FPKM ≥1, log 2(fold change) ≥0.5, q-value ≤0.05
Procedure: Human hepatocytes were obtained from two donors from Massachusetts General Hospital, namely MGH54 and MGH63, and one donor from Lonza, namely HUM4111B. Cryopreserved hepatocytes were cultured in plating media for 16 hours, transferred to maintenance media for 4 hours. Cultured on serum-free media for 2 hours, then a compound was added. The hepatocytes were maintained on the serum-free media for 16 hours prior to gene expression analysis. Primary human hepatocytes were stored in the vapor phase of a liquid nitrogen freezer (about -130° C.). Human hepatocytes cultured as described above were plated in 24-well format, adding 375,000 cells per well in a volume of 500 ul plating medium. Four hours before treatment, cells were washed with PBS and the medium was changed to either: fresh maintenance medium (complete) or modified maintenance medium. Compound stocks were prepared at 1000× final concentration and added in a 2-step dilution to the medium to reduce risk of a compound precipitating out of solution when added to the cells, and to ensure reasonable pipetting volumes. […] The plate was mixed by carefully swirling and after all wells were treated and returned to the incubator overnight. If desired, separate plates/wells were treated with vehicle-only controls and/or positive controls. If using multi-well plates, controls were included on each plate. After about 18 hours, cells were harvested for further analysis, e.g., ChIP-seq, RNA-seq, ATAC-seq, etc. This protocol is a modified version of the following protocols: MagMAX mirVana Total RNA Isolation Kit User Guide (Applied Biosystems #MAN0011131 Rev B.0), NEBNext Poly(A) mRNA Magnetic Isolation Module ([…]), and NEBNext Ultra Directional RNA Library Prep Kit for Illumina ([…]) (New England Biosystems #E74901). […] Two hundred μl of Lysis Binding Mix was used per well of the multiwell plate containing adherent cells (usually a 24-well plate). For mRNA isolation and library prep, the NEBNext Poly(A) mRNA Magnetic Isolation Module and Directional Prep kit was used. RNA isolated from cells above was quantified, and prepared in […] of each sample in 50 μl of nuclease-free water. This protocol may be run in microfuge tubes or in a 96-well plate. […] Genomic alignments were converted to transcriptome alignments based on reference transcript annotations from the Human GENCODE Gene Set release 24 (Harrow et al., Genome Res. […] Using unique and multimapped transcriptomic alignments, gene-level abundance estimates were computed using RSEM version 1.3.0 (Li and Dewey, BMC Bioinformatics (2011) 12:323) in a strand-aware manner, and including confidence interval sampling calculations, to arrive at posterior mean estimates (PME) of abundances (counts and normalized FPKM-fragments per kilobase of exon per million mapped fragments) from the underlying Bayesian model. Standard QC were applied (read integrity, mapping statistics, library complexity, fragment bias) to remove unsatisfactory samples. Differential gene expression was computed using the negative binomial model implemented by DESeq2 version 1.16.1 (Love et al., Genome Biol. (2014) 15(12):550). […] RNA-seq signals were also normalized by read depth and visualized using the UCSC browser. To identify small molecules that modulate target gene expression, primary human hepatocytes were prepared as a monoculture, and at least one small molecule compound was applied to the cells. RNA-seq was performed to determine the effects of the compounds on the expression of the target genes in hepatocytes. Fold change was calculated by dividing the level of expression in the cell system that had been perturbed by the level of expression in an unperturbed system.

[2] = tested on: UGT1A1; test: RNA-seq of UGT1A1 expression in compound-treated primary human hepatocytes
In short: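 Cryopreserved primary human hepatocytes from three donors were plated in 24-well format, then treated with compound diluted from 1000× stocks in serum-free maintenance medium for about 16–18 h. Poly(A) RNA-seq log2 fold change was computed against vehicle/pan-experiment controls. Significance required FPKM ≥1, log2FC ≥0.5 and q ≤0.05.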

[3] = tested on: CPOX; test: RNA-seq of CPOX expression in compound-treated primary human hepatocytes; conditions: RNA-seq, primary human hepatocytes; significance FPKM ≥0.5, log 2(fold change) ≥0.3, q-value ≤0.05
Procedure: Human hepatocytes were obtained from two donors from Massachusetts General Hospital, namely MGH54 and MGH63, and one donor from Lonza, namely HUM4111B. Cryopreserved hepatocytes were cultured in plating media for 16 hours, transferred to maintenance media for 4 hours. Cultured on serum-free media for 2 hours, then a compound was added. The hepatocytes were maintained on the serum-free media for 16 hours prior to gene expression analysis. Primary human hepatocytes were stored in the vapor phase of a liquid nitrogen freezer (about −130° C.).
Human hepatocytes cultured as described above were plated in 24-well format, adding 375,000 cells per well in a volume of 500 ul plating medium. Four hours before treatment, cells were washed with PBS and the medium was changed to either: fresh maintenance medium (complete) or modified maintenance medium.
Compound stocks were prepared at 1000× final concentration and added in a 2-step dilution to the medium to reduce risk of a compound precipitating out of solution when added to the cells, and to ensure reasonable pipetting volumes. One at a time, each compound was first diluted 10-fold in warm (about 37° C.) modified maintenance medium (initial dilution=ID), mixed by vortexing, and the ID was diluted 100-fold into the cell culture (e.g. 5.1 ul into 1 well of a 24-well plate containing 0.5 mL medium). The plate was mixed by carefully swirling and after all wells were treated and returned to the incubator overnight. If desired, separate plates/wells were treated with vehicle-only controls and/or positive controls. If using multi-well plates, controls were included on each plate. After about 18 hours, cells were harvested for further analysis, e.g., ChIP-seq, RNA-seq, ATAC-seq, etc.
This protocol is a modified version of the following protocols: MagMAX mirVana Total RNA Isolation Kit User Guide (Applied Biosystems #MAN0011131 Rev B.0), NEBNext Poly(A) mRNA Magnetic Isolation Module (E7490), and NEBNext Ultra Directional RNA Library Prep Kit for Illumina (E7420) (New England Biosystems #E74901).
The MagMAX mirVana kit instructions (the section titled “Isolate RNA from cells” on pages 14-17) were used for isolation of total RNA from cells in culture. Two hundred μl of Lysis Binding Mix was used per well of the multiwell plate containing adherent cells (usually a 24-well plate).
For mRNA isolation and library prep, the NEBNext Poly(A) mRNA Magnetic Isolation Module and Directional Prep kit was used. RNA isolated from cells above was quantified, and prepared in […] of each sample in 50 μl of nuclease-free water. This protocol may be run in microfuge tubes or in a 96-well plate.
Standard QC were applied (read integrity, mapping statistics, library complexity, fragment bias) to remove unsatisfactory samples. […] Log 2 fold change and significance values were computed using PME count data (with replicates explicitly modeled versus pan-experiment controls), median ratio normalized, using maximum likelihood estimation rather than maximum a posteriori, and disabling the use of Cook's distance cutoff when determining acceptable adjusted p-values. […] RNA-seq signals were also normalized by read depth and visualized using the UCSC browser.
To identify small molecules that modulate target gene expression, primary human hepatocytes were prepared as a monoculture, and at least one small molecule compound was applied to the cells.
RNA-seq was performed to determine the effects of the compounds on the expression of the target genes in hepatocytes. Fold change was calculated by dividing the level of expression in the cell system that had been perturbed by the level of expression in an unperturbed system. Changes in expression having a p-value ≤0.05 were considered significant.
Significance was defined as an FPKM ≥0.5 a log 2(fold change) ≥0.3, and a q-value of ≤0.05.

SMILES	SERPINC1 Fold Change (Log2) [1]	UGT1A1 Fold Change (Log2) [2]	CPOX Fold change (Log2) [3]
S=C(NCc1ccc2c(c1)OCO2)N1CCN(c2ncnc3c2oc2ccccc23)CC1 [Amuvatinib]	1.33 Log2	0.61 Log2	
O=C1CCC(N2C(=O)c3ccccc3C2=O)C(=O)N1 (stereo not shown) [Thalidomide]	0.88 Log2		0.3 Log2

From patent US20210161997A1, “TREATING DISEASES VIA TARGETED MODULATION OF GENE SIGNALING NETWORKS” (Camp4 Therapeutics Corporation, priority 2018, published 2021)
